For data set [1] the following is noted: 101 kPa, Liquid; for viscosity: Capillary tube (Ostwald / Ubbelohde) method.
A short description of data set [2]: refractive index (Na D-line) (dimensionless). To be noted: 101.33 kPa, Liquid, Standard Abbe refractometry.

Drawing on the NIST ThermoML archive (doi:10.1021/je0502546), this text covers mass density, viscosity and refractive index for 4 compounds.

Numbers after ± are expanded uncertainties.

With `CCCCc1ccccc1` [butylbenzene], the mass density (in general, mass per unit of volume) worked out at 861.26 ± 0.39 kg/m3 in data set [1] (293.15 K) and 852.23 ± 0.39 kg/m3 in data set [1] (303.15 K). The viscosity (commonly the resistance of a fluid to flow) turned out to be 1.034 ± 0.009 mPa·s in data set [1] (293.15 K) and 0.893 ± 0.008 mPa·s in data set [1] (303.15 K). The refractive index (commonly a measure of how strongly the sample bends light) in data set [2] (293.15 K) was 1.4895 ± 0.0007; in data set [2] (303.15 K), 1.4845 ± 0.0007.
Take `CCc1ccccc1` [ethylbenzene]: the mass density in data set [1] (293.15 K) was determined as 866.95 ± 0.22 kg/m3; in data set [1] (303.15 K), 858.01 ± 0.22 kg/m3. Moreover, the values for the viscosity in data set [1] (293.15 K) and in data set [1] (303.15 K) were 0.669 ± 0.006 mPa·s and 0.596 ± 0.005 mPa·s, respectively. Further, the refractive index in data set [2] (293.15 K) is recorded as 1.4957 ± 0.0007; in data set [2] (303.15 K), 1.4902 ± 0.0007.
With `CCCc1ccccc1` [propylbenzene], the mass density in data set [1] (293.15 K) amounted to 863.13 ± 0.39 kg/m3; in data set [1] (303.15 K) it was 854.71 ± 0.39 kg/m3. The viscosity in data set [1] (293.15 K) is recorded as 0.855 ± 0.008 mPa·s; in data set [1] (303.15 K), 0.744 ± 0.007 mPa·s. Also, the refractive index in data set [2] (293.15 K) is 1.4916 ± 0.0007; in data set [2] (303.15 K), 1.4858 ± 0.0007.
As for `Cc1ccccc1` [toluene], the mass density in data set [1] (293.15 K) amounted to 866.88 ± 0.29 kg/m3; in data set [1] (303.15 K), 857.46 ± 0.29 kg/m3. Besides, the viscosity in data set [1] (293.15 K) turned out to be 0.588 ± 0.005 mPa·s; in data set [1] (303.15 K), 0.523 ± 0.005 mPa·s. Besides, the refractive index is on record as 1.4962 ± 0.0006 in data set [2] (293.15 K) and 1.4914 ± 0.0006 in data set [2] (303.15 K).
